From patent US12398139B2, “Modulators of AMPA receptor signaling” (Centre for Addiction and Mental Health, priority 2019, dated 2025) come the findings set out here.

Each structure is given as a SMILES string. pIC50: −log10 of the molar value. A value given as a limit tells only on which side of the number the result lay.

For one data set, the target named is T1, GluR2/GAPDH complex (Homo sapiens, UniProt P42262).
T1 construct: host or cells: HEK293 cells stably transfected with GluR2-VENUS (lysate)
The data set can be described thus: Surface plasmon resonance target engagement assay (competitive GluR2-Venus affinity with GAPDH). As to conditions: SPR, captured GluR2-VENUS, 100 nM GAPDH peptide, compound top concentration 10 μM; read-out: Potency, GluR2 Binding Affinity (competitive inhibition of GluR2-GAPDH interaction). As for the experimental part:
This is one of the most commonly used techniques to study modulation of protein-protein interactions by small molecule ligands, providing real-time measurement of binding affinities and association/dissociation kinetics of complexes (compound/protein) in a label-free environment. The ability of our lead compound to disrupt the interaction of GluR2/GAPDH complex was measured by the binding affinity. Compounds were analyzed for competitive GluR2-Venus protein affinity (with GAPDH recombinant protein) using a Reichert 2SPR system. The surface was first charged with nickel (500 μM NiCl2 in HBS-P buffer for 300 s at a flow rate of 5 μL/min). The dextran surface was then activated with a 1:1 mixture of N-ethyl-N-dimethylaminopropylcarbodiimide (EDC) and N-hydroxysuccinimide (NHS) on line for final concentrations of EDC and NHS of 37.5 mg/mL and 5.8 mg/mL, respectively, for 420 s at a flow rate of 25 μL/min. Anti-VENUS antibody was first immobilized by capture onto a 500 KDa CM Dextran sensor chip (Reichert), proceeded by activation of the carboxymethylated dextran surface for mild amine coupling, followed by a final blocking injection of 1 M ethanolamine, pH 8.5. GluR2-VENUS (lysate of HEK293 cells stably transfected with GluR2-VENUS) was then captured for 900 s at a flow rate of 25 μL/min followed by a final blocking injection of 2% BSA, for 300 s at a flow rate of 5 μL/min.
The surface plasmon resonance affinity assay was carried out in a PBS buffer consisting of 0.05% Tween 20. For affinity measurements, compound solutions were prepared using ten three-fold serial dilutions in running buffer from a 10 μM top concentration (prepared from DMSO stocks) along with a zero (running buffer) control, mixed with 100 nM GAPDH peptide (Sigma Aldrich). A flow rate of 30 μl/min was used with a 420 s contact time (using high performance injection parameters) followed by a 120 s dissociation phase. Results were analyzed by subtracting the signals of the reference surface from the signals for the protein-bound surfaces and performing a solvent correction. Competitive binding responses were normalized throughout the screen to the percentage of inhibition of the respective small molecule compound. Three independent experiments were performed.
The binding affinity was measured using the surface plasmon resonance assay described above.
(In SPR one partner is held on a chip, and binding of the other changes the refractive index at the surface.)

Data set [1] deals with HEK-293 cells expressing GAPDH and GluR2. Nature of the data set: AMPA mediated cell-death assay (CellTox Green Cytotoxicity Assay). The format is cell-based. As to conditions: Homo sapiens, HEK293, AMPA 500 μM, CTZ 100 μM, CellTox Green fluorescence, read-out: Potency, inhibition of AMPA-mediated neurotoxicity (IC50, concentration at which 50% of cell death was prevented). As for the experimental part: The ability of compounds to inhibit AMPA-mediated neurotoxicity was determined using the CellTox™ Green Cytotoxicity Assay (G8743) kit from Promega. In this assay, GAPDH and GluR2 are expressed in HEK-293 cells. AMPA (500 μM) was added to induce an AMPAR-mediated cell death signalling cascade. This is initiated by the GAPDH-GluR2 complex formation followed by the nuclear translocation of the complex, where it activates the p53-mediated cell death pathway. The presence of a compound which can block dimerization of GAPDH and GluR2 will prevent the nuclear translocation and the cell death and, thus this assay is an effective measure of the ability of a compound to prevent AMPA-mediated neurotoxicity and thus show therapeutic benefit in the treatment of MS.
The assay was performed as per the manufacture's instruction. Briefly, 293 cells stably expressing GluR1 and GluR2VENUS were transfected with pcDNA-RluC-GAPDH. AMPA (500 μM) were added to induce the cell death. CTZ (100 μM) was added to prevent AMPAR desensitization. Candidate molecules were added before the AMPA treatment to test its protective effect. Untreated cells and AMPA treated group were used as negative and positive control respectively. CellTox™ Green Reagent (˜5×) was then added to achieve a final concentration of 1× and cells were incubated at room temperature for 15 minutes (shielded from ambient light). The fluorescence intensity at 485-500 nmEx/520-530 nmEm was then measured and calculated as the percentage value of the positive control. The concentration at which 50% of cell death was prevented (IC50) was determined for each compound.
The potency was measured using the cell death assay described above.

Another data set relates to EAE mice. Nature of the data set: Experimental autoimmune encephalomyelitis (EAE) model for multiple sclerosis. The format is in vivo, mice (C57BL/6).
Data set [2] can be described thus: Human liver microsomal stability assay. As to conditions: both sexes, pooled human liver microsomes, pH 7.4; human liver microsomes 0.5 mg/mL, 3 μM compound, NADPH, 37° C., 45 min; read-out: T1/2, human liver microsomal stability. In kind it is in vitro ADME. As for the experimental part: (§1) Metabolic stability of 2-pyrrolopyrazoles derivatives was measured by determination of the rate of compound disappearance when incubated in the presence of human or rat liver microsomes. Liver microsomes are prepared from the endoplasmic reticulum of hepatocytes and are the primary source of the most important enzymes (cytochrome P450) involved in drug metabolism. Study of drug stability in the presence of liver microsomes is accepted as a valuable model permitting rapid prediction of in vivo drug stability.
(§2) Human or rat liver microsomes were obtained from a commercial source. Test compounds (3 μM) were incubated with pooled liver microsomes (male and female). Samples were incubated for a 45 minute period and removed at 5 time points and test compounds were analyzed by LC-MS/MS
(§3) Microsomes (final protein concentration 0.5 mg/mL), 0.1 M phosphate buffer pH 7.4, and test compound (final concentration 3 μM; diluted from 10 mM stock solution to give a final DMSO concentration of 0.25%) were incubated at 37° C. prior to the addition of NADPH (final concentration 1 mM) to initiate the reaction. The final incubation volume was 25 μL. A control incubation was included for each compound tested, where 0.1 M phosphate buffer pH 7.4 was added instead of NADPH. The control compounds testosterone and 7-hydroxycoumarin were included in each experiment and all incubations were performed singularly for each compound.
(§4) Each compound was incubated for 0, 5, 15, 30, and 45 minutes. The control (minus NADPH) was incubated for 45 minutes only. The reactions were stopped by the addition of 50 μL methanol containing internal standard at the appropriate time points. The incubation plates were centrifuged at 2500 rpm for 20 minutes at 4° C. to precipitate the protein.
(§5) Following protein precipitation, the sample supernatants were combined in cassettes of up to 4 compounds and analysed using standard LC-MS/MS conditions.
(§6) From a plot of the natural logarithm of the peak area ratio (i.e., the ratio of compound peak area: internal standard peak area) against time, the gradient of the line was determined. Subsequently, half-life and intrinsic clearance were calculated using the equations below: Eliminated rate constant (k)=(−gradient). Half-life (t1/2) (min)=[…]. Intrinsic Clearance (CLint) (μL/min/[…])=(V×0.693)/t1/2. wherein V=Incubation volume (μL/mg microsomal protein).
(§7) Biological half-life values (t1/2) were determined for several 2-pyrrolopyrazoles, as well as the closely-related reference 1-pyrrolopyrazole, using the human liver microsomal stability assay described above.
In general terms: Liver microsomes are a subcellular fraction often used to study metabolism.

Data set [3] is described as follows: Rat liver microsomal stability assay. The format is in vitro ADME. As to conditions: both sexes, pooled rat liver microsomes, pH 7.4; rat liver microsomes 0.5 mg/mL, 3 μM compound, NADPH, 37° C., 45 min; read-out: T1/2, rat liver microsomal stability. The procedure:
as §1, §2, §3, §4, §5, §6, §7

T1 sequence (P42262 25-883, species assumed, one chain of several): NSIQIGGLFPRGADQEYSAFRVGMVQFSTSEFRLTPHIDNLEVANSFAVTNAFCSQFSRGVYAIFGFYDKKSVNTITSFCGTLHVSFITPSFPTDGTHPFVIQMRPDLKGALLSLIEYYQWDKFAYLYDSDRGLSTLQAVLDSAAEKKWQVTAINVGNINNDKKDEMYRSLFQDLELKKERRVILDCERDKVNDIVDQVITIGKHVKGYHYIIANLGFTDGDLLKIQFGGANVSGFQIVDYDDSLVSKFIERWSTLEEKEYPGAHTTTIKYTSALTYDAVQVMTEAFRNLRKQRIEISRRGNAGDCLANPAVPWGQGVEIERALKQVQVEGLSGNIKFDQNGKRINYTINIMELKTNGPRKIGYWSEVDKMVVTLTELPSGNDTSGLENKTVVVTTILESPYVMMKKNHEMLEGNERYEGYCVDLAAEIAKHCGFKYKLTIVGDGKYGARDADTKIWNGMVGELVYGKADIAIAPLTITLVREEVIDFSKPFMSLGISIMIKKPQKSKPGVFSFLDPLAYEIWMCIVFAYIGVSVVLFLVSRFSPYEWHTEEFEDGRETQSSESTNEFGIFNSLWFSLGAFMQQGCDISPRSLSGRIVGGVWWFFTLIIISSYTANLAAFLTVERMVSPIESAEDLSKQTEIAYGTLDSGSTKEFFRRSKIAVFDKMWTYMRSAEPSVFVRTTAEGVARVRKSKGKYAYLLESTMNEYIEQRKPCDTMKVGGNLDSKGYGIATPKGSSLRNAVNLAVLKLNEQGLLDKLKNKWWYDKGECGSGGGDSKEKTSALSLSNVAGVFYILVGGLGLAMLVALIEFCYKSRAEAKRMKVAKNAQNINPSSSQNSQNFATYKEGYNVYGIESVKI

Consider `CN(C)C(=O)c1cncc(N2Cc3cn(Cc4ccc(F)cc4)nc3C2)n1` [Compound 155, 6-(2-(4-Fluorobenzyl)-2,6-dihydropyrrolo[3,4-c]pyrazol-5(4H)-yl)-N,N-dimethylpyrazine-2-carboxamide], for which the pIC50 on GluR2/GAPDH complex is 9.40; in data set [1] it was 7.46. The “mean clinical score compared with the no treatment group” value with EAE mice (5 or 10 mg/kg i.p. daily from day 11~12, two-way ANOVA at least P<0.05) was “significantly lower”. In the data set with EAE mice (i.p. administration from day 11~12 after immunization (1~2 days after symptoms)), the neurological function result is given as “greatly improves neurological function”.
In the case of `CN(C)C(=O)c1ccnc(N2Cc3cn(Cc4ccc(F)cc4)nc3C2)n1` [Compound 210, 2-(2-(4-Fluorobenzyl)-2,6-dihydropyrrolo[3,4-c]pyrazol-5(4H)-yl)-N,N-dimethylpyrimidine-4-carboxamide], the half-life at 3 μM in data set [2] was 749 min. Also, the pIC50 on GluR2/GAPDH complex was 7.48; in data set [1], 7.09.
Consider `O=C(NC1CCCCC1)c1cccc(N2Cc3cn(Cc4ccc(F)cc4)nc3C2)c1` [Compound 216, N-Cyclohexyl-3-(2-(4-fluorobenzyl)-2,6-dihydropyrrolo[3,4-c]pyrazol-5(4H)-yl)benzamide], for which, in data set [2], the half-life at 3 μM was more than 1000 min. Also, the pIC50 at GluR2/GAPDH complex is 7.04; in data set [1] it was 7.24.
In the case of `CN(C(=O)c1ccnc(N2Cc3cn(Cc4ccc(F)cc4)nc3C2)n1)C1CCCC1` [Compound 226, N-Cyclopentyl-2-(2-(4-fluorobenzyl)-2,6-dihydropyrrolo[3,4-c]pyrazol-5(4H)-yl)-N-methylpyrimidine-4-carboxamide], the values for the half-life at 3 μM in data set [3] and in data set [2] were less than 1 min and 7 min, respectively. Further, the pIC50 in data set [1] is 7.38.
In the same order, the values of `CN(C(=O)c1cncc(N2Cc3cn(Cc4ccc(F)cc4)nc3C2)n1)C1CCCC1` [Compound 228, N-Cyclopentyl-6-(2-(4-fluorobenzyl)-2,6-dihydropyrrolo[3,4-c]pyrazol-5(4H)-yl)-N-methylpyrazine-2-carboxamide] are less than 1 min, 8 min and 7.38.
As for `CN(C(=O)c1ccnc(N2Cc3cn(Cc4ccc(F)cc4)nc3C2)n1)C1CCCCC1` [Compound 230, N-Cyclohexyl-2-(2-(4-fluorobenzyl)-2,6-dihydropyrrolo[3,4-c]pyrazol-5(4H)-yl)-N-methylpyrimidine-4-carboxamide], the half-life at 3 μM in data set [3] was less than 1 min. Also, in data set [1], the pIC50 is 7.06.
`O=C(c1cccc(N2Cc3cn(Cc4ccc(F)cc4)nc3C2)c1)N1CCCCC1` [Compound 242, (3-(2-(4-Fluorobenzyl)-2,6-dihydropyrrolo[3,4-c]pyrazol-5(4H)-yl)phenyl)(piperidin-1-yl)methanone]: the half-life at 3 μM in data set [3] turned out to be 14 min. Further, the pIC50 at GluR2/GAPDH complex is 8.10; in data set [1] it was 7.10.
`N#Cc1cncc(N2Cc3cn(Cc4ccc(F)cc4)nc3C2)n1` [Compound 245, 6-(2-(4-Fluorobenzyl)-2,6-dihydropyrrolo[3,4-c]pyrazol-5(4H)-yl)pyrazine-2-carbonitrile]: the figures for the pIC50 (on GluR2/GAPDH complex; in data set [1]) were 6.69 and 6.11, respectively.
For `CN(C)C(=O)c1ccc(N2Cc3cn(Cc4ccc(F)cc4)nc3C2)cc1` [Compound 246, 4-(2-(4-Fluorobenzyl)-2,6-dihydropyrrolo[3,4-c]pyrazol-5(4H)-yl)-N,N-dimethylbenzamide] the same measures were 6.36 and 8.07.
Turning to `CN(C)C(=O)c1cccc(N2Cc3cn(CC4CC4)nc3C2)c1` [Compound 247, 3-(2-(Cyclopropylmethyl)-2,6-dihydropyrrolo[3,4-c]pyrazol-5(4H)-yl)-N,N-dimethylbenzamide], the values for the pIC50 (on GluR2/GAPDH complex; in data set [1]) were 6.83 and 7.44, respectively.
Consider `CN(C)C(=O)c1cncc(N2Cc3cnn(Cc4ccc(F)cc4)c3C2)n1` [REF, reference compound], for which the values for the pIC50 (on GluR2/GAPDH complex; in data set [1]) were less than 6.00 and 6.70, respectively.
